A short description of the data set: Human HepG2 cell viability assay in 384 well format. In kind it is toxicity, cell-based. Further details: dose 125 nL, time 70.5 hour; cytotoxicity at 70.5 h: concentration not given beside the values. Conditions: HepG2 cells, read-out: Inhibition.

Drawing on ChEMBL document CHEMBL3507680, “University of Dundee, Gates Library screen for HepG2 cell viability”, this text covers cytotoxicity for 106 compounds.

SMILES strings stand for the structures.

Regarding `CN1CCN(c2ccccc2CNC(=O)Cc2ccccc2F)CC1`, the cytotoxicity at 70.5 h was -5.79%.
Consider `N#CCCSc1nnc(Cc2ccccc2F)o1`, for which the cytotoxicity at 70.5 h was -3.12%.
Regarding `CCNC(=O)Nc1ccc(N2CCC(OC)CC2)c(C(F)(F)F)c1`, the cytotoxicity at 70.5 h is -1.82%.
As to `Fc1ccc(-c2noc(C3COCCO3)n2)cc1F` (stereo unspecified), the cytotoxicity at 70.5 h was -1.66%.
As for `CCc1cc(N2CCC(Nc3ccc(Cl)cn3)CC2)ncn1`, the cytotoxicity at 70.5 h amounted to 12.5%.
`CC(C)(C)c1cc(NC(=O)NCCc2nnc3n2CCC3)c(C#N)s1`: the cytotoxicity at 70.5 h turned out to be 8.88%.
In the case of `Cc1ccc(Br)cc1NC(=O)NCC(O)CO` (stereo unspecified), the cytotoxicity at 70.5 h was determined as 3.24%.
`CC(C)c1cc(Br)ccc1NC(=O)NCC(O)CO` (stereo unspecified): the cytotoxicity at 70.5 h was -3.27%.
Take `CS(=O)(=O)CCSc1nnc(Cc2ccccc2F)o1`: the cytotoxicity at 70.5 h is -1.57%.
In the case of `COc1ccc(C(C)NCc2cccs2)cc1Cn1cccn1` (stereo unspecified), the cytotoxicity at 70.5 h was 15.6%.
`COCC(=O)Nc1ccc(N2CCC(OC)CC2)c(C(F)(F)F)c1`: the cytotoxicity at 70.5 h is -0.835%.
Take `CCc1nc(CN2CCCN(Cc3noc(C4CC4)n3)CC2)cs1`: the cytotoxicity at 70.5 h is -0.776%.
Consider `Cc1cnn(CC(C)NCc2ccc(C#N)cc2)c1` (stereo unspecified), for which the cytotoxicity at 70.5 h was 0.599%.
Take `COc1cccc(OCC(=O)N2CCOc3ccncc32)c1`: the cytotoxicity at 70.5 h is 13.2%.
The figure for `Cc1nc(CN(Cc2ccccc2F)C2CCC2)no1` is -3.66%.
With `CCN(C(=O)Cn1cc(Cl)cn1)c1ccccc1`, the cytotoxicity at 70.5 h is 5.93%.
For `CC(C)N1CCCC(CNC(=O)CN(C)S(=O)(=O)c2ccccc2)C1` (stereo unspecified), the cytotoxicity at 70.5 h was -5.65%.
Take `Cc1ccccc1SCC(=O)NC1CCC(O)CC1` (stereo unspecified): the cytotoxicity at 70.5 h came to 7.04%.
Take `O=C1NCC(C(=O)NCc2ccccc2CN2CCOCC2)N1` (stereo unspecified): the cytotoxicity at 70.5 h was -4.6%.
Turning to `O=C(COCc1ccccc1)NCc1ccc(O)c(F)c1`, the cytotoxicity at 70.5 h is -0.734%.
Regarding `CN1CCN(CCOc2ccc(NC(=O)c3ccncc3)cc2)CC1`, the cytotoxicity at 70.5 h was -3.29%.
Turning to `COc1ncccc1N(C)C(=O)Cn1cc(-c2ccccc2)nn1`, the cytotoxicity at 70.5 h is -4.75%.
On to `CC(C)c1noc(CN2CCN(C(=O)OC(C)(C)C)C(C)C2)n1` (stereo unspecified), for which the cytotoxicity at 70.5 h turned out to be 7.76%.
On to `CCc1ccc(C(=O)NCC2CCCN2CC)o1` (stereo unspecified), for which the cytotoxicity at 70.5 h is -3.5%.
Take `Cc1cc(CN(C)C(=O)CC(C)C)no1`: the cytotoxicity at 70.5 h is -2.9%.
As for `CC(=O)N1CCCN(C(=O)NC(C)Cn2ccnc2)CC1` (stereo unspecified), the cytotoxicity at 70.5 h was -4.31%.
In the case of `CC(=O)N1CCN(CCNC(=O)NC(C)Cn2ccnc2)CC1` (stereo unspecified), the cytotoxicity at 70.5 h was -2.74%.
In the case of `COc1ccccc1CC(C)CC(=O)N(C)Cc1cc(C)on1` (stereo unspecified), the cytotoxicity at 70.5 h amounted to 2.26%.
The figure for `COc1ccc(CN(C)C(=O)CN2CC(n3cccn3)C2)cc1F` is -0.231%; for `COc1ccccc1CC(=O)N(C)Cc1cc(C)on1` it is -3.86%.
Regarding `N#Cc1cccnc1NCCNC(=O)NCCSC(F)(F)F`, the cytotoxicity at 70.5 h was -10.1%.
As to `CC(=O)N1CCN(C(=O)c2sccc2Br)CC1`, the cytotoxicity at 70.5 h stood at 15.1%.
`CN(CC(=O)NCCC#N)C(c1ccccc1)c1ccc(F)cc1` (stereo unspecified): the cytotoxicity at 70.5 h was -15.7%.
As for `Cc1n[nH]c(C)c1CNCC(O)c1ccc(F)c(F)c1` (stereo unspecified), the cytotoxicity at 70.5 h was -3.32%.
As for `CC(C)N(CC(N)=O)Cc1c(Cl)ccc2cccnc12`, the cytotoxicity at 70.5 h is -8.03%.
Take `COC(=O)c1ccc(N2CCN(Cc3csc(C)n3)CC2)nn1`: the cytotoxicity at 70.5 h was -14.7%.
Turning to `CCOCCCC(=O)Nc1ccc(OCc2noc(C3CC3)n2)cc1`, the cytotoxicity at 70.5 h is 7.14%.
As for `CCOCCNC(=O)Nc1ccc(OCc2noc(C3CC3)n2)cc1`, the cytotoxicity at 70.5 h was -7.9%.
Consider `COCCCNC(=O)Nc1ccc(OCc2noc(C3CC3)n2)cc1`, for which the cytotoxicity at 70.5 h is -11.8%.
The figure for `O=C(Cc1ccccc1Br)NCC(=O)Nc1cn[nH]c1` is -6.36%; for `O=C(Cc1ccc(Br)s1)NCC(=O)Nc1cn[nH]c1` it is -9.18%.
Turning to `N#CC1COCCN1S(=O)(=O)c1ccc(F)c(Br)c1` (stereo unspecified), the cytotoxicity at 70.5 h is -9.56%.
For the compound `CN(C)c1cccc(C2CCCN2c2nc3c(cnn3C)c(=O)[nH]2)c1` (stereo unspecified), the cytotoxicity at 70.5 h was 15.4%.
The figure for `CC(C)Cn1cc(NC(=O)NC(C)(C)c2nccs2)cn1` is -6.56%; for `CC(C)(NC(=O)Nc1cnn(CC2CCCO2)c1)c1nccs1` (stereo unspecified) it is -6.03%; for `CN(Cc1c(Cl)ccc2cccnc12)CC(C)(CO)CO` it is -10.4%.
The figure for `c1cc(CCn2ccc(NC3CCSCC3)n2)ccn1` is -3.19%.
With `Cc1ncc(C(=O)Nc2cncnc2N(C)C)c(Cl)c1Cl`, the cytotoxicity at 70.5 h was -9.76%.
As for `CC(NCCc1nccn1Cc1ccccc1)c1ccsc1` (stereo unspecified), the cytotoxicity at 70.5 h is -10.7%.
The figure for `CC(C)CCn1ccc(NC2CCSC2)n1` (stereo unspecified) is -8.47%.
With `Cc1nn(-c2ccc(F)cc2)c2[nH]nc(N)c12`, the cytotoxicity at 70.5 h amounted to 8.73%.
`NC(=O)c1ccnc(N2CCN(Cc3ccc(F)cc3Cl)CC2)c1`: the cytotoxicity at 70.5 h is -15.2%.
With `CCOc1ccc(Cl)c(C(=O)NC(C(N)=O)c2ccccc2)n1` (stereo unspecified), the cytotoxicity at 70.5 h came out at 14.2%.
Take `Cc1cc(S(C)(=O)=O)c(C)c(S(=O)(=O)NC2CCCC2)c1`: the cytotoxicity at 70.5 h was -8.42%.
The figure for `Cc1nnc(CN2CCN(Cc3nccn3C)CC2)n1C` is -8.45%.
Consider `Cc1cc(NC(=O)N2CCN(C)CC2C)n(CCC#N)n1` (stereo unspecified), for which the cytotoxicity at 70.5 h was 18.4%.
Consider `Cc1cc(NC(=O)N2CCN(C)CC2C)n(C)n1` (stereo unspecified), for which the cytotoxicity at 70.5 h is -6.62%.
The figure for `Cc1[nH]n(-c2ccccc2)c2nnc(N)c1-2` is -2.04%; for `CSc1ccsc1C(=O)NC(Cc1ccccc1)C(N)=O` (stereo unspecified) it is -1.87%; for `CN(CCN1CCN(c2ccccc2)CC1)C(=O)Nc1ccccn1` it is 17.7%.
The figure for `Cc1ccc(CNC(=O)N(C)Cc2ccc([S+](C)[O-])cc2)s1` (stereo unspecified) is -6.72%; for `COC(=O)c1cccc(CNC(=O)CC(F)(F)F)c1` it is -5.17%.
On to `OC1(CNCc2ccc(F)c(C(F)(F)F)c2)CCOC1` (stereo unspecified), for which the cytotoxicity at 70.5 h is -2.64%.
As for `COc1cccc(Cn2cccc(C#N)c2=O)c1`, the cytotoxicity at 70.5 h was -7%.
Take `CCc1cccc(OCCn2cccc(C#N)c2=O)c1`: the cytotoxicity at 70.5 h is -8.55%.
Turning to `CCc1nnc(SCC(=O)Nc2cc(C(C)(C)C)nn2C)[nH]1`, the cytotoxicity at 70.5 h was -5.12%.
Turning to `CCc1ocnc1C(=O)N1CCC2(CC1)OCC(C)O2` (stereo unspecified), the cytotoxicity at 70.5 h was -5.57%.
The figure for `Cc1csc(CNC(=O)N(C)Cc2ccc([S+](C)[O-])cc2)n1` (stereo unspecified) is -5.11%.
Regarding `COc1ccc(-c2nnc(C(C)N3CCC4(CC3)OCCO4)o2)cc1` (stereo unspecified), the cytotoxicity at 70.5 h was -10.3%.
For the compound `O=C(NCC(O)COc1cccc(F)c1)C1(c2ccc(F)cc2)CC1` (stereo unspecified), the cytotoxicity at 70.5 h is -12%.
As for `Cc1cccc(CN(Cn2nc(C)c3c(C)onc3c2=O)C2CC2)c1`, the cytotoxicity at 70.5 h was -13.7%.
Turning to `CNC(=O)c1cccc(NC(=O)NCc2ccc(SC)cc2)c1C`, the cytotoxicity at 70.5 h is -7.01%.
Regarding `Cc1cnn(C2CN(c3nc(C)cc(N(C)C)n3)C2)c1`, the cytotoxicity at 70.5 h is 0.987%.
The figure for `NC(=O)C1CN(Cc2c(O)ccc3oc4c(c23)CCCC4)CCO1` (stereo unspecified) is -5.87%.
In the case of `Cc1ccc(CCNC(=O)NCc2cccc(OC(F)F)c2)cn1`, the cytotoxicity at 70.5 h is -8.89%.
Take `COc1cc2nc(NCc3cc(C)on3)nc(N)c2cc1OC`: the cytotoxicity at 70.5 h is 34.1%.
As for `CCOc1ccc(NC(=O)NC2CCc3nc(C)nn3C2)cc1Cl` (stereo unspecified), the cytotoxicity at 70.5 h is -2.45%.
For the compound `CCc1ccc(C2COCCN2C(=O)Nc2cccc(C(C)=O)c2)o1` (stereo unspecified), the cytotoxicity at 70.5 h is -1.25%.
The figure for `Cc1nonc1NC(=O)C1SCCc2ccccc21` (stereo unspecified) is 2.97%.
In the case of `CCc1ccc(C2COCCN2C(=O)Nc2cc(C)on2)o1` (stereo unspecified), the cytotoxicity at 70.5 h was -3.5%.
`NC(=O)CN1CCC(NC2CCCCc3ccccc32)CC1` (stereo unspecified): the cytotoxicity at 70.5 h worked out at 5.24%.
Regarding `OCCNC1CSCCc2ccccc21` (stereo unspecified), the cytotoxicity at 70.5 h came to 33.4%.
Take `O=C(NCc1cc(Cl)ccn1)NCc1ccco1`: the cytotoxicity at 70.5 h was 13.9%.
`CS(=O)(=O)NCCNC(=O)NC1(c2ccc(Cl)cc2)CCC1`: the cytotoxicity at 70.5 h stood at 16.5%.
Turning to `Cc1nn(CN(Cc2ccsc2)C2CC2)c(=O)c2noc(C)c12`, the cytotoxicity at 70.5 h was -8.61%.
For `OCCOc1ccc(NCc2cccnc2)cn1`, the cytotoxicity at 70.5 h came out at 24.6%.
Take `CCCNC(=O)CCNC1CSCCc2ccccc21` (stereo unspecified): the cytotoxicity at 70.5 h was -2.78%.
With `CCS(=O)(=O)NCCCNC1CSCCc2ccccc21` (stereo unspecified), the cytotoxicity at 70.5 h is -7.41%.
In the case of `COCc1nccc(C2CCCN(Cc3cccc(C#N)c3)C2)n1` (stereo unspecified), the cytotoxicity at 70.5 h is -9.48%.
The figure for `N#Cc1ccc(S(=O)(=O)NCCn2ccnc2)cc1Cl` is -0.547%; for `O=C(NCc1ccccc1CN1CCCC1)Nc1nncs1` it is 3.29%.
Regarding `Cn1c(=O)ccn(CC(=O)Nc2cnccc2O)c1=O`, the cytotoxicity at 70.5 h is -4.1%.
For the compound `CC(Cn1ccnc1)NS(=O)(=O)c1ccc(C#N)c(Cl)c1` (stereo unspecified), the cytotoxicity at 70.5 h was -9.17%.
`CC(C)(C(=O)NCc1ccccc1F)n1cc(Br)cn1`: the cytotoxicity at 70.5 h is -6.29%.
With `NC(=O)c1ccc(C(=O)N2CCCCC2C2OCCO2)cc1` (stereo unspecified), the cytotoxicity at 70.5 h was -10.6%.
For the compound `CN(C1CCN(c2ccccn2)CC1)S(=O)(=O)c1cccs1`, the cytotoxicity at 70.5 h was -8.7%.
With `Cn1c(=O)ccn(CC(=O)Nc2cccnc2)c1=O`, the cytotoxicity at 70.5 h is 12.6%.
The figure for `Cc1nn(C)c(N(C)C)c1CNCc1ccnn1C` is -5.03%; for `Cc1cnc(CN2CCN(C(C)c3nc(C(C)C)no3)CC2)cn1` (stereo unspecified) it is -6.56%; for `O=C(COCC1CC1)N1CCN(C(=O)Cc2ccccn2)CC1` it is -1.46%.
For `c1ccc(Cc2noc(CN3CCCCC3C3OCCO3)n2)cc1` (stereo unspecified), the cytotoxicity at 70.5 h is -2.71%.
With `COc1ccc(OCC(=O)NS(=O)(=O)c2cc(C)ccc2C)cc1`, the cytotoxicity at 70.5 h was -6.75%.
With `N#Cc1ccc(SCCCO)c(F)c1`, the cytotoxicity at 70.5 h was -5.69%.
The figure for `COCc1nccc(C2CCCN(Cc3cccc(F)c3)C2)n1` (stereo unspecified) is 0.742%.
With `O=C(c1ccc(Cl)c(Cl)c1)N1CCCCC1C1OCCO1` (stereo unspecified), the cytotoxicity at 70.5 h was -4.22%.
As for `CC(C)c1nn(C)c(N(C)C)c1CNCc1ccnn1C`, the cytotoxicity at 70.5 h was 18%.
